# Reference: ChEMBL document CHEMBL5728847, “Cyanoindoline derivatives as NIK inhibitors” (2021)
# Target: Mitogen-activated protein kinase kinase kinase 14 (Homo sapiens, UniProt Q99558)
# Test: Inhibition of Auto-Phosphorylation of Recombinant Human NF-kappaB-Inducing Kinase (NIK1/AP3K14) Activity: NIK/MAP3K14 auto-phosphorylation activity was measured using the AlphaScreen® (αscreen) format (Perkin Elmer). All compounds tested were dissolved in dimethyl sulfoxide (DMSO) and further dilutions were made in assay buffer. Final DMSO concentration was […] in assays. Assay buffer was 50 mM Tris pH 7.5 containing 1 mM EGTA (ethylene glycol tetraacetic acid), 1 mM DTT (dithiothreitol), 0.1 mM Na3VO4, 5 mM MgCl2, 0.01% Tween® 20. Assays were carried out in 384 well Alphaplates (Perkin Elmer). Incubations consisted of compound, 25 microM Adenosine-5′-triphosphate (ATP), and 0.2 nM NIK/MAP3K14. Incubations were initiated by addition of GST-tagged NIK/MAP3K14 enzyme, carried out for 1 h at 25° C. and terminated by addition of stop buffer containing anti-phospho-[…] Ser176/180 antibody. Protein A Acceptor and Glutathione-Donor beads were added before reading using an EnVision® Multilabel Plate Reader (Perkin Elmer). Signal obtained in the wells containing blank samples was subtracted from all other wells and IC50's were determined by fitting a sigmoidal curve to % inhibition of control versus Log10 compound concentration.
# Mitogen-activated protein kinase kinase kinase 14, sequence (Q99558 whole entry): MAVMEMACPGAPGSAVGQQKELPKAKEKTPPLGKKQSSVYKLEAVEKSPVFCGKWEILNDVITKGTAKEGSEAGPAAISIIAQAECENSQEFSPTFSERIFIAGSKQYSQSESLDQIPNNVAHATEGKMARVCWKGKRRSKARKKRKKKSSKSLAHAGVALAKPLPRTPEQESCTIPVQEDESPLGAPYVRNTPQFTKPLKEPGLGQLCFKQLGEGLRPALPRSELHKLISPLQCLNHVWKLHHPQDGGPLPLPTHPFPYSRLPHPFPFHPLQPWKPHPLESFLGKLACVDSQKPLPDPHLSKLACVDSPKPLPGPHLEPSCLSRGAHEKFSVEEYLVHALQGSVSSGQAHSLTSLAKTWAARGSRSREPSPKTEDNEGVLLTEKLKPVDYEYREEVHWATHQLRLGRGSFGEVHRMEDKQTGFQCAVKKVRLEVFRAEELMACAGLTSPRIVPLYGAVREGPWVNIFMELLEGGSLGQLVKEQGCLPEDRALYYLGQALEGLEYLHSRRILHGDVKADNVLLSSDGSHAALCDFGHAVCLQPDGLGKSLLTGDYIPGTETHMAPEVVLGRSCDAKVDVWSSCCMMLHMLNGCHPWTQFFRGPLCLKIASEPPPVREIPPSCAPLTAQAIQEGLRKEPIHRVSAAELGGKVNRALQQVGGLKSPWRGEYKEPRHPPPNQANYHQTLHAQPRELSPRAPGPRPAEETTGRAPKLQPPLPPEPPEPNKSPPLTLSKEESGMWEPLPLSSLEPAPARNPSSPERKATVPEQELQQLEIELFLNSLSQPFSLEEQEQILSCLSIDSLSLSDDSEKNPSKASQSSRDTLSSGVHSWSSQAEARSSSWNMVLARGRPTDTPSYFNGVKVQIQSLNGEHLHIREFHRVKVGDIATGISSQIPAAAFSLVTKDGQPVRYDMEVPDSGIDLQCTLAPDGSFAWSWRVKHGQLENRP
row,SMILES,IC50 [nM]
1,CN1CCc2ncc(Nc3ncc(F)c(-c4cc(C#N)c5c(c4)[C@@](C)(CO)CN5)n3)cc2C1,4.2
2,CC1(C)CNc2c(C#N)cc(-c3ccnc(Nc4cc(Cl)cc5[nH]ccc45)n3)cc21,148
3,COc1nc2c(cc1Nc1nccc(-c3cc(C#N)c4c(c3)[C@@](C)(CO)CN4)n1)CCN(C)C2,1.8
